# Values quoted from earlier work, collected in patent US4370313A, “Nitrofurantoin dosage form” (Eaton Laboratories, Inc., priority 1981, dated 1983).
compound,measurement,setting,value
O=C1CN(/N=C/c2ccc([N+](=O)[O-])o2)C(=O)N1 [nitrofurantoin],preferred absorption in a limited segment of the human gastrointestinal tract,,duodenum
same,expected urinary level peaks,"immediately available dose, conventional dosage forms, human",2 to 3 h
